What is called IC50 is the point on the concentration scale where inhibition reaches its midpoint.

The assay deals with Mitogen-activated protein kinase 14 (Homo sapiens) (UniProt Q16539). In words: Inhibition of p38alpha.
Mitogen-activated protein kinase 14 (Homo sapiens), sequence (Q16539 whole entry, looked up): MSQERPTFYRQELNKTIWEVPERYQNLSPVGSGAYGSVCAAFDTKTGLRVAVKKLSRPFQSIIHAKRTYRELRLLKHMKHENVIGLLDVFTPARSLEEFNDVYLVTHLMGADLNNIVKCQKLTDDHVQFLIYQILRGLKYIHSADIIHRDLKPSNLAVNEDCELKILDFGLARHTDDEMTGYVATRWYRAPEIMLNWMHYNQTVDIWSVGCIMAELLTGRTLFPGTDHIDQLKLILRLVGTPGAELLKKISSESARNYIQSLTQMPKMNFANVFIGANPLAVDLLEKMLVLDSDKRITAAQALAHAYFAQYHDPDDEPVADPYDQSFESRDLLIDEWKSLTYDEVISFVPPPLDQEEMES
Regarding `CC(C)(C)c1nnc2ccc(Sc3ccc(F)cc3F)cn12`, the 50% inhibitory concentration (IC50) was 62 nM.

Turning to `Cc1ccc(C(=O)NC2CC2)cc1-c1ccn2c(C(C)(C)C)nnc2c1`, 16 nM corresponded to half-maximal inhibition (IC50). Against the preceding compound, the IC50 is about 3.9-fold lower.

`Cc1c(F)cc(C(=O)NC2CC2)cc1-c1c(F)cn2c(C(C)(C)C)nnc2c1F` yielded an IC50 of 6.2 nM.

Compound `Cc1c(F)cc(C(=O)NC2CC2)cc1-c1ccn2c(C(F)(F)F)nnc2c1` returned a half-inhibitory concentration (IC50) of 85 nM.

Turning to `Cc1c(F)cc(C(=O)NC2CC2)cc1-c1ccn2c(C(N)=O)nnc2c1`, the IC50 came to 102 nM.

`Cc1c(F)cc(C(=O)NC2CC2)cc1-c1ccn2c(C(C)(C)N)nnc2c1` showed an IC50 of 15.4 nM.

For `COC(C)(C)c1nnc2cc(-c3cc(C(=O)NC4CC4)cc(F)c3C)ccn12`, the half-maximal inhibitory concentration (IC50) worked out at 9.4 nM.

`CC(=O)NC(C)(C)c1nnc2cc(-c3cc(C(=O)NC4CC4)cc(F)c3C)ccn12` returned a concentration for half-maximal inhibition (IC50) of 253 nM.

Regarding `Cc1c(F)cc(C(=O)NC2CC2)cc1-c1ccn2c(C(C)(C)N(C)C)nnc2c1`, the IC50 was 1.7 nM. This IC50 lies about 150-fold lower than the previous one.

Take `Cc1c(F)cc(C(=O)NC2CC2)cc1-c1ccn2c(C(C)(C)O)nnc2c1`: the half-inhibitory concentration (IC50) is 3.1 nM. This IC50 lies about 1.8-fold higher than the previous one.

`Cc1ccc(C(=O)NC2CC2)cc1-c1c(F)cn2c(C(C)(C)C)nnc2c1F` showed an IC50 of 49 nM. Against the preceding compound, the IC50 is about 16-fold higher.

As for `Cc1c(F)cc(C(=O)NC2CC2)cc1-c1c(F)cn2c(C(C)C)nnc2c1F`, inhibition was half-maximal at 6.7 nM (IC50).

For `Cc1c(F)cc(C(=O)NC2CC2)cc1-c1c(F)cn2c(C3CC3)nnc2c1F`, the midpoint of inhibition, the IC50, lay at 10 nM. This IC50 and that of the compound before are within 1.5-fold of each other.

For `Cc1c(F)cc(C(=O)NC2CC2)cc1-c1c(F)cn2c(-c3ccncc3Cl)nnc2c1F`, the IC50 was determined as 23 nM.

Turning to `Cc1c(F)cc(C(=O)NC2CC2)cc1-c1c(F)cn2c(C(C)(C)N)nnc2c1F`, the IC50 worked out at 12 nM. This IC50 is about 1.9-fold lower than that of the compound before.

Compound `Cc1c(F)cc(C(=O)NC2CC2)cc1-c1c(F)cn2c(C(C)(C)N(C)C)nnc2c1F` returned an IC50 of 15 nM.

`Cc1ccc(C(=O)NC2CC2)cc1-c1ccc2c(N3CCCCC3)noc2c1`: half-maximal inhibition (IC50) was put at 14 nM. This IC50 and that of the compound before are within 1.5-fold of each other.

As to `Cc1c(F)cc(C(=O)NC2CC2)cc1-c1ccn2c(C(C)(C)C)nnc2c1`, the half-maximal inhibitory concentration (IC50) is 2 nM. Against the preceding compound, the IC50 is about 7-fold lower.

Regarding `Cc1ccc(C(=O)NC2CC2)cc1-c1ccn2c(C(C)C)nnc2c1`, the concentration for half-maximal inhibition (IC50) came out at 27 nM. Against the preceding compound, the IC50 is about 14-fold higher.

`Cc1c(F)cc(C(=O)NC2CC2)cc1-c1ccn2c(C(C)C)nnc2c1` yielded a half-maximal inhibitory concentration (IC50) of 3 nM.

Take `Cc1ccc(C(=O)NC2CC2)cc1-c1ccn2c(C3(C)CC3)nnc2c1`: the IC50 was 12 nM. This IC50 is about 4-fold higher than that of the compound before.

Compound `Cc1c(F)cc(C(=O)NC2CC2)cc1-c1ccn2c(C3(C)CC3)nnc2c1` gave an IC50 of 0.64 nM. This IC50 is about 19-fold lower than that of the compound before.

The compound `Cc1ccc(C(=O)NC2CC2)cc1-c1ccn2c(C3CCC3)nnc2c1` returned an IC50 of 20 nM.

As to `Cc1c(F)cc(C(=O)NC2CC2)cc1-c1ccn2c(C3CCC3)nnc2c1`, half-maximal inhibition (IC50) was put at 1.9 nM.

As to `Cc1ccc(C(=O)NC2CC2)cc1-c1ccn2c(C3CCOCC3)nnc2c1`, the half-maximal inhibitory concentration (IC50) was 56 nM.

Turning to `Cc1c(F)cc(C(=O)NC2CC2)cc1-c1ccn2c(C3CCOCC3)nnc2c1`, the IC50 amounted to 30 nM.

Consider `Cc1ccc(C(=O)NC2CC2)cc1-c1ccn2c(-c3ccccc3Cl)nnc2c1`, for which the IC50 came to 6.3 nM.

On to `Cc1c(F)cc(C(=O)NC2CC2)cc1-c1ccn2c(-c3ccccc3Cl)nnc2c1`, for which half-maximal inhibition (IC50) required 1.6 nM.

The compound `Cc1ccc(C(=O)NC2CC2)cc1-c1ccn2c(-c3ccncc3Cl)nnc2c1` yielded an IC50 of 38 nM.

`Cc1c(F)cc(C(=O)NC2CC2)cc1-c1ccn2c(-c3ccncc3Cl)nnc2c1`: the 50% inhibitory concentration (IC50) is 0.83 nM. Against the preceding compound, the IC50 is about 46-fold lower.

Regarding `COC(C)c1nnc2cc(-c3cc(C(=O)NC4CC4)ccc3C)ccn12` (stereo not given), the IC50 came out at 43 nM.

Regarding `COC(C)c1nnc2cc(-c3cc(C(=O)NC4CC4)cc(F)c3C)ccn12` (stereo not given), the IC50 came to 18 nM.

Consider `Cc1ccc(C(=O)NC2CC2)cc1-c1ccn2c(C(F)(F)F)nnc2c1`, for which the half-maximal inhibitory concentration (IC50) turned out to be 853 nM.

In turn, `Cc1c(F)cc(C(=O)NC2CC2)cc1-c1ccn2c(C3CC3)nnc2c1` yielded an IC50 of 6.7 nM.

Compound `Cc1c(F)cc(C(=O)NC2CC2)cc1-c1ccn2c(C(C)(C)NS(C)(=O)=O)nnc2c1` registered an IC50 of 17 nM. This IC50 lies about 2.5-fold higher than the previous one.

The values above are taken from BindingDB's records for doi:10.1016/j.bmcl.2012.03.099 (Rhône-Poulenc Rorer, 2012).
